Experimental data published in ChEMBL document CHEMBL1201862, “PubChem BioAssay data set” (2004).
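Five compound concentrations were applied to cells in 96-well plates for 48 hours; endpoints were derived by simple linear interpolation of the resulting dose-response curve. The concentration for 50% growth inhibition is given as GI50.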 Activity calls are given as the source filed them. Rule as the data show it: active = GI50 up to about 1.1 µM and inactive = higher.

Legend:
Experiment in all cases: DTP human tumour cell line panel, 48 h
SF-295 = tested on: SF-295
A549 = tested on: A549
SNB-19 = tested on: SNB-19
OVCAR-5 = tested on: OVCAR-5
UO-31 = tested on: UO-31
NCI-H522 = tested on: NCI-H522
SF-539 = tested on: SF-539
ACHN = tested on: ACHN
CCRF-CEM = tested on: CCRF-CEM
NCI-H23 = tested on: NCI-H23
HL-60 = tested on: HL-60
SK-MEL-5 = tested on: SK-MEL-5
786-0 = tested on: 786-0
EKVX = tested on: EKVX
U-251 = tested on: U-251
NCI-H460 = tested on: NCI-H460
UACC-62 = tested on: UACC-62
IGROV-1 = tested on: IGROV-1

Compound | GI50 (SF-295) | GI50 (A549) | GI50 (SNB-19) | GI50 (OVCAR-5) | GI50 (UO-31) | GI50 (NCI-H522) | GI50 (SF-539) | GI50 (ACHN) | GI50 (CCRF-CEM) | GI50 (NCI-H23) | GI50 (HL-60) | GI50 (SK-MEL-5) | GI50 (786-0) | GI50 (EKVX) | GI50 (U-251) | GI50 (NCI-H460) | GI50 (UACC-62) | GI50 (IGROV-1)
COc1cc(/C=C2\C(=O)N(C(=O)Cc3ccccc3)N=C2C)ccc1O | > 100 µM (inactive) | > 100 µM (inactive) | > 100 µM (inactive) | > 100 µM (inactive) | > 100 µM (inactive) | > 100 µM (inactive) | > 100 µM (inactive) | > 100 µM (inactive) | > 100 µM (inactive) | > 100 µM (inactive) | > 100 µM (inactive) | 3.01 µM (inactive) | > 100 µM (inactive) | > 100 µM (inactive) | – | – | – | –
COc1ccc(/C(=N\NC(=O)C(N)=O)C(c2ccc(OC)cc2)C2(O)C(=O)Nc3c(Cl)cccc32)cc1 (stereo not given) | > 100 µM (inactive) | > 100 µM (inactive) | > 100 µM (inactive) | > 100 µM (inactive) | > 100 µM (inactive) | – | – | > 100 µM (inactive) | 50.1 µM (inactive) | > 100 µM (inactive) | 26.9 µM (inactive) | > 100 µM (inactive) | 74.8 µM (inactive) | > 100 µM (inactive) | > 100 µM (inactive) | > 100 µM (inactive) | > 100 µM (inactive) | > 100 µM (inactive)
N#CCCN(CCC#N)c1ccc(/C=C2\N=C(c3cc([N+](=O)[O-])ccc3Cl)OC2=O)cc1 | 44.5 µM (inactive) | > 100 µM (inactive) | 25.9 µM (inactive) | > 100 µM (inactive) | > 100 µM (inactive) | 14 µM (inactive) | 40.3 µM (inactive) | > 100 µM (inactive) | – | – | 38.1 µM (inactive) | 16 µM (inactive) | 34.4 µM (inactive) | > 100 µM (inactive) | 17.6 µM (inactive) | 67.5 µM (inactive) | 62.4 µM (inactive) | > 100 µM (inactive)
COc1cc2c(c(O)c1C)C(=O)CC(c1ccccc1)O2 (stereo not given) | > 10 µM (inactive) | 56.6 µM (inactive) | – | 39.1 µM (inactive) | 23 µM (inactive) | 50.2 µM (inactive) | > 100 µM (inactive) | 43.7 µM (inactive) | > 10 µM (inactive) | 22.4 µM (inactive) | – | 18.2 µM (inactive) | 59.7 µM (inactive) | 89.3 µM (inactive) | 56.4 µM (inactive) | > 10 µM (inactive) | 47.9 µM (inactive) | 61.9 µM (inactive)
NC(=S)N/N=C/c1nccc2ccccc12 | 0.168 µM (active) | 0.409 µM (active) | 0.948 µM (active) | 0.685 µM (active) | 0.443 µM (active) | 0.719 µM (active) | 0.223 µM (active) | 0.0254 µM (active) | 0.453 µM (active) | 0.459 µM (active) | 0.393 µM (active) | 0.467 µM (active) | 0.2 µM (active) | – | 0.296 µM (active) | 0.415 µM (active) | 0.281 µM (active) | 0.762 µM (active)
CN(Cc1ccccc1)C1(N(C)Cc2ccccc2)CC1 | > 100 µM (inactive) | > 100 µM (inactive) | > 100 µM (inactive) | > 100 µM (inactive) | > 100 µM (inactive) | > 100 µM (inactive) | > 100 µM (inactive) | > 100 µM (inactive) | > 100 µM (inactive) | > 100 µM (inactive) | > 100 µM (inactive) | > 100 µM (inactive) | > 100 µM (inactive) | > 100 µM (inactive) | > 100 µM (inactive) | > 100 µM (inactive) | > 100 µM (inactive) | > 100 µM (inactive)
CC(C)(c1ccc(Oc2ccc(C#N)c(C#N)c2)cc1)c1ccc(Oc2ccc(C#N)c(C#N)c2)cc1 | > 10 µM (inactive) | > 10 µM (inactive) | > 10 µM (inactive) | > 10 µM (inactive) | 3.58 µM (inactive) | > 10 µM (inactive) | > 10 µM (inactive) | > 10 µM (inactive) | > 10 µM (inactive) | > 10 µM (inactive) | > 10 µM (inactive) | > 10 µM (inactive) | > 10 µM (inactive) | > 10 µM (inactive) | > 10 µM (inactive) | > 10 µM (inactive) | > 10 µM (inactive) | > 10 µM (inactive)
O=C1C(C2=[N+]([O-])c3ccccc3C2=O)=[N+]([O-])c2ccccc21 | 40.7 µM (inactive) | 26.4 µM (inactive) | 46.7 µM (inactive) | 94.4 µM (inactive) | 43.1 µM (inactive) | – | 20.5 µM (inactive) | 24.8 µM (inactive) | 19.3 µM (inactive) | 23.9 µM (inactive) | 19.4 µM (inactive) | 17.8 µM (inactive) | 20.6 µM (inactive) | 16.6 µM (inactive) | 20.4 µM (inactive) | 23.1 µM (inactive) | > 10 µM (inactive) | 32.1 µM (inactive)
O=C(O)CCCc1cc2c(s1)-c1cccc3cccc-2c13 | 50.1 µM (inactive) | 36.6 µM (inactive) | 27.4 µM (inactive) | > 100 µM (inactive) | 17 µM (inactive) | 21 µM (inactive) | 45.3 µM (inactive) | 22.4 µM (inactive) | – | 21.2 µM (inactive) | 22.4 µM (inactive) | – | > 100 µM (inactive) | – | 25.4 µM (inactive) | > 100 µM (inactive) | 21.3 µM (inactive) | 47.3 µM (inactive)
C/C(=C(/C)c1cc[n+](C)cc1)c1cc[n+](C)cc1 | > 75 µM (inactive) | > 75 µM (inactive) | > 75 µM (inactive) | > 75 µM (inactive) | > 75 µM (inactive) | 18.8 µM (inactive) | > 75 µM (inactive) | > 75 µM (inactive) | > 75 µM (inactive) | > 75 µM (inactive) | > 75 µM (inactive) | > 75 µM (inactive) | > 75 µM (inactive) | > 75 µM (inactive) | > 75 µM (inactive) | > 75 µM (inactive) | > 75 µM (inactive) | 34.4 µM (inactive)
COc1cc(Nc2nc3ccccc3nc2-c2cccs2)cc(OC)c1OC | 22.8 µM (inactive) | 21 µM (inactive) | 56.9 µM (inactive) | > 100 µM (inactive) | > 10 µM (inactive) | – | 40.6 µM (inactive) | 16.4 µM (inactive) | 47.1 µM (inactive) | 50.6 µM (inactive) | 15.2 µM (inactive) | – | 22.4 µM (inactive) | 89.5 µM (inactive) | > 10 µM (inactive) | 33.7 µM (inactive) | 36.2 µM (inactive) | –
CC(=O)Oc1cc(OC(C)=O)c(OC(C)=O)c2c1CC1C(=O)C3(CCc4ccccc43)C(=O)C1C2 (stereo not given) | 4.61 µM (inactive) | 19.5 µM (inactive) | – | – | 22.1 µM (inactive) | – | – | 13.4 µM (inactive) | 10.7 µM (inactive) | 18.4 µM (inactive) | 4.53 µM (inactive) | – | 13.6 µM (inactive) | 20 µM (inactive) | 15.8 µM (inactive) | 13.9 µM (inactive) | 14.5 µM (inactive) | 19.8 µM (inactive)
CC(C)(C)c1cc([Si](C)(C)C)c(C#N)c([Si](C)(C)C)c1 | 29.8 µM (inactive) | 65.5 µM (inactive) | 62.1 µM (inactive) | > 100 µM (inactive) | > 100 µM (inactive) | 46.6 µM (inactive) | > 100 µM (inactive) | 87.3 µM (inactive) | 48.6 µM (inactive) | 76.9 µM (inactive) | 22 µM (inactive) | – | > 100 µM (inactive) | > 100 µM (inactive) | 36.1 µM (inactive) | > 100 µM (inactive) | 60.5 µM (inactive) | > 100 µM (inactive)
Cc1cc(O)nc(NNC(C#N)c2ccco2)n1 (stereo not given) | > 100 µM (inactive) | > 100 µM (inactive) | – | > 100 µM (inactive) | > 100 µM (inactive) | > 100 µM (inactive) | > 100 µM (inactive) | > 100 µM (inactive) | > 100 µM (inactive) | > 100 µM (inactive) | > 100 µM (inactive) | > 100 µM (inactive) | > 100 µM (inactive) | – | > 100 µM (inactive) | > 100 µM (inactive) | > 100 µM (inactive) | > 100 µM (inactive)
CN(C(=O)c1ccc([N+](=O)[O-])cc1)c1ccccc1 | > 100 µM (inactive) | > 100 µM (inactive) | > 100 µM (inactive) | > 100 µM (inactive) | > 100 µM (inactive) | > 100 µM (inactive) | > 100 µM (inactive) | > 100 µM (inactive) | > 100 µM (inactive) | > 100 µM (inactive) | – | – | > 100 µM (inactive) | > 100 µM (inactive) | > 100 µM (inactive) | > 100 µM (inactive) | > 10 µM (inactive) | > 100 µM (inactive)
C/C(=N\NC(N)=S)c1ccc(C)c(C)c1 | 48.8 µM (inactive) | 65.8 µM (inactive) | – | 29.1 µM (inactive) | 52.1 µM (inactive) | – | 19.9 µM (inactive) | 59.2 µM (inactive) | 28.1 µM (inactive) | 85.7 µM (inactive) | 15.1 µM (inactive) | 69.2 µM (inactive) | 44.6 µM (inactive) | 3.31 µM (inactive) | 88.9 µM (inactive) | 59.3 µM (inactive) | 28.4 µM (inactive) | 25.4 µM (inactive)
CC1(C)CC(/C=C2/OC(=O)c3ccccc32)=C(C#N)C(=O)O1 | > 100 µM (inactive) | > 100 µM (inactive) | > 100 µM (inactive) | > 100 µM (inactive) | > 100 µM (inactive) | > 100 µM (inactive) | > 100 µM (inactive) | > 100 µM (inactive) | > 100 µM (inactive) | > 100 µM (inactive) | – | > 100 µM (inactive) | > 100 µM (inactive) | > 100 µM (inactive) | > 100 µM (inactive) | > 100 µM (inactive) | > 100 µM (inactive) | > 100 µM (inactive)
